Structures can show the parent of a compound that is named as a salt.
Row | Compound | melting point
1 | CC(C)(N)c1ccc(-c2ccc3[nH]ncc3c2OC2CC2)nc1 (as salt: hydrochloride) [Compound 5-70, 5-[5-(1-Amino-1-methylethyl)pyridin-2-yl]-4-cyclo-propyloxy-1H-indazole trihydrochloride] | 203 to 205 °C (dec.)
2 | CC(=O)n1ncc2ccc(-c3ccc(C(C)(C)N)cc3)cc21 (as salt: hydrochloride) [Compound 5-38, 1-Acetyl-6-[4-(1-amino-1-methylethyl)phenyl]-1H-indazole dihydrochloride] | 225 to 230 °C
3 | CC(C)(N)c1ccc(-c2ccc3[nH]ncc3c2C#N)cc1 (as salt: hydrochloride) [Compound 5-36, 5-[4-(1-Amino-1-methylethyl)phenyl]-4-cyano-1H-indazole monohydrochloride] | 270 to 272 °C
4 | CC(C)(N)c1ccc(-c2ccc3[nH]ncc3c2NCc2ccccc2)cc1 (as salt: hydrochloride) [Compound 5-6, 5-[4-(1-Amino-1-methylethyl)phenyl]-4-benzylamino-1H-indazole dihydrochloride] | 185 to 192 °C (dec.)
5 | COc1c(-c2ccc(C(C)(C)N)cn2)ccc2[nH]ncc12 (as salt: hydrochloride) [Compound 5-45, 5-[5-(1-Amino-1-methylethyl)pyridin-2-yl]-4-methoxy-1H-indazole trihydrochloride] | 195 to 201 °C (dec.)
6 | CC(C)(N)c1ccc(-c2ccc3[nH]ncc3c2OC(F)F)cc1 (as salt: hydrochloride) [Compound 5-53, 5-[4-(1-Amino-1-methylethyl)phenyl]-4-difluoro-methoxy-1H-indazole dihydrochloride] | 227 to 230 °C (dec.)
7 | C=CCOc1c(-c2ccc(C(C)(C)N)cc2)ccc2[nH]ncc12 (as salt: hydrochloride) [Compound 5-57, 4-Allyloxy-5-[4-(1-amino-1-methylethyl)phenyl]-1H-indazole dihydrochloride] | 205 to 207 °C (dec.)
8 | CC(C)(N)c1ccc(-c2ccc3[nH]nc(CO)c3c2)cc1 (as salt: hydrochloride) [Compound 5-14, 5-[4-(1-Amino-1-methylethyl)phenyl]-3-hydroxymethyl-1H-indazole dihydrochloride] | 238 to 242 °C (dec.)
9 | CCC(N)(CC)c1ccc(-c2ccc3[nH]ncc3c2OC(F)F)cc1 (as salt: hydrochloride) [Compound 5-72, 5-[4-(1-Amino-1-ethylpropyl)phenyl]-4-difluoro-methoxy-1H-indazole dihydrochloride] | 234 to 237 °C
10 | CC(C)Oc1c(-c2ccc(C(C)(C)N)cc2)ccc2[nH]ncc12 (as salt: hydrochloride) [Compound 5-40, 5-[4-(1-Amino-1-methylethyl)phenyl]-4-isopropoxy-1H-indazole dihydrochloride] | 242 to 246 °C (dec.)
11 | CC(C)(N)c1ccc(-c2ccc3[nH]ncc3c2-n2cccc2)cc1 (as salt: hydrochloride) [Compound 5-39, 5-[4-(1-Amino-1-methylethyl)phenyl]-4-(pyrrol-1-yl)-1H-indazole dihydrochloride] | 244 to 247 °C (dec.)
12 | C=C(C)c1n[nH]c2ccc(-c3ccc(C(C)(C)N)cc3)cc12 (as salt: trifluoroacetate) [Compound 5-15, 5-[4-(1-Amino-1-methylethyl)phenyl]-3-(1-methyl-vinyl)-1H-indazole monotrifluoroacetate] | 221 to 225 °C (dec.)
13 | CCCCOc1c(-c2ccc(C(C)(C)N)cc2)ccc2[nH]ncc12 (as salt: hydrochloride) [Compound 5-55, 5-[4-(1-Amino-1-methylethyl)phenyl]-4-n-butoxy-1H-indazole dihydrochloride] | 227 to 229 °C (dec.)
14 | COc1c(-c2ccc(C(C)(C)N)cc2)ccc2[nH]ncc12 (as salt: hydrochloride) [Compound 5-44, 5-[4-(1-Amino-1-methylethyl)phenyl]-4-methoxy-1H-indazole dihydrochloride] | 258 to 261 °C (dec.)
15 | CC(C)(N)c1ccc(-c2ccc3[nH]ncc3c2N2CCCC2)cc1 (as salt: hydrochloride) [Compound 5-42, 5-[4-(1-Amino-1-methylethyl)phenyl]-4-(pyrrolidin-1-yl)-1H-indazole trihydrochloride] | 218 to 224 °C (dec.)
16 | CCC(N)(CC)c1ccc(-c2ccc3[nH]ncc3c2OC)nc1 (as salt: hydrochloride) [Compound 5-51, 5-[5-(1-Amino-1-ethylpropyl)pyridin-2-yl]-4-methoxy-1H-indazole trihydrochloride] | 204 to 206 °C (dec.)
17 | CC(C)Oc1c(-c2ccc(C(C)(C)N)cn2)ccc2[nH]ncc12 (as salt: hydrochloride) [Compound 5-50, 5-[5-(1-Amino-1-methylethyl)pyridin-2-yl]-4-isopropoxy-1H-indazole trihydrochloride] | 211 to 213 °C (dec.)
18 | C=Cc1c(-c2ccc(C(C)(C)N)cn2)ccc2[nH]ncc12 (as salt: hydrochloride) [Compound 5-30, 5-[5-(1-Amino-1-methylethyl)pyridin-2-yl]-4-vinyl-1H-indazole trihydrochloride] | 162 to 166 °C (dec.)

Row | Compound | melting point
19 | CC(C)(N)c1ccc(-c2ccc3[nH]ncc3c2CCO)cc1 (as salt: hydrochloride) [Compound 5-32, 5-[4-(1-Amino-1-methylethyl)phenyl]-4-(2-hydroxy-ethyl)-1H-indazole dihydrochloride] | 202 to 203 °C (dec.)
20 | NCc1ccc(-c2ccc3[nH]ncc3c2[N+](=O)[O-])cc1 (as salt: hydrochloride) [Compound 5-19, 5-[4-(Aminomethyl)phenyl]-4-nitro-1H-indazole dihydrochloride] | 269 to 274 °C (dec.)
21 | CCCOc1c(-c2ccc(C(C)(C)N)cc2)ccc2[nH]ncc12 (as salt: hydrochloride) [Compound 5-52, 5-[4-(1-Amino-1-methylethyl)phenyl]-4-n-propoxy-1H-indazole dihydrochloride] | 237 to 243 °C (dec.)
22 | CC(N)c1ccc(-c2ccc3[nH]ncc3c2N(C)C)cc1 (centres unmarked) (as salt: hydrochloride) [Compound 5-26, 5-[4-(1-Aminoethyl)phenyl]-4-dimethylamino-1H-indazole trihydrochloride] | 180 to 182 °C (dec.)
23 | CNc1c(-c2ccc(C(C)(C)N)cc2)ccc2[nH]ncc12 (as salt: hydrochloride) [Compound 5-7, 5-[4-(1-Amino-1-methylethyl)phenyl]-4-methylamino-1H-indazole trihydrochloride] | 202 to 206 °C (dec.)
24 | CCC(N)(CC)c1ccc(-c2ccc3[nH]ncc3c2N)cc1 (as salt: hydrochloride) [Compound 5-22, 4-Araino-5-[4-(1-amino-1-ethylpropyl)phenyl]-1H-indazole trihydrochloride] | 197 to 199 °C (dec.)
25 | CC(C)(N)c1ccc(-c2ccc3[nH]ncc3c2O)nc1 (as salt: hydrochloride) [Compound 5-69, 5-[5-(1-Amino-1-methylethyl)pyridin-2-yl]-4-hydroxy-1H-indazole trihydrochloride] | 255 to 260 °C (dec.)
26 | CCCOc1c(-c2ccc(C(C)(C)N)cn2)ccc2[nH]ncc12 (as salt: hydrochloride) [Compound 5-58, 5-[5-(1-Amino-1-methylethyl)pyridin-2-yl]-4-n-propoxy-1H-indazole trihydrochloride] | 194 to 198 °C (dec.)
27 | CC(C)(N)c1ccc(-c2ccc3[nH]ncc3c2OC(F)F)nc1 (as salt: hydrochloride) [Compound 5-59, 5-[5-(1-Amino-1-methylethyl)pyridin-2-yl]-4-difluoromethoxy-1H-indazole trihydrochloride] | 170 to 173 °C
28 | CC(C)(N)c1ccc(-c2ccc3[nH]ncc3c2N2CCOCC2)cc1 (as salt: hydrochloride) [Compound 5-43, 5-[4-(1-Amino-1-methylethyl)phenyl]-4-(morpholin-4-yl)-1H-indazole trihydrochloride] | 268 to 272 °C (dec.)
29 | CN(C)c1c(-c2ccc(C(C)(C)N)cc2)ccc2[nH]ncc12 (as salt: hydrochloride) [Compound 5-16, 5-[4-(1-Amino-1-methylethyl)phenyl]-4-dimethylamino-1H-indazole trihydrochloride] | 219 to 224 °C (dec.)
30 | CC(C)(N)c1ccc(-c2ccc3[nH]nc(C(N)=O)c3c2)cc1 (as salt: hydrochloride) [Compound 5-10, 3-Aminocarbonyl-5-[4-(1-amino-1-methylethyl)phenyl]-1H-indazole monohydrochloride] | 258 to 261 °C (dec.)
31 | CC(C)(N)c1ccc(-c2ccc3[nH]ncc3c2N)cc1 (as salt: hydrochloride) [Compound 5-5, 4-Amino-5-[4-(1-amino-1-methylethyl)phenyl]-1H-indazole trihydrochloride] | 228 to 235 °C (dec.)
32 | CN(C)/C=C/C(=O)c1c(-c2ccc(C(C)(C)NC(=O)OC(C)(C)C)cc2)ccc2nn(C3CCCCO3)cc12 (centres unmarked) [Compound 29, 5-[4-(1-tert-butoxycarbonylamino-1-methylethyl)phenyl]-4-(3-dimethylaminoacryloyl)-2-(tetra-hydropyran-2-yl)-2H-indazole] | 191 to 194 °C
33 | CCOc1c(-c2ccc(C(N)(CC)CC)cn2)ccc2[nH]ncc12 (as salt: hydrochloride) [Compound 5-60, 5-[5-(1-Amino-1-ethylpropyl)pyridin-2-yl]-4-ethoxy-1H-indazole trihydrochloride] | 200 to 202 °C (dec.)
34 | CC(C)(N)c1ccc(-c2ccc3[nH]nc(N)c3c2)cc1 (as salt: hydrochloride) [Compound 5-11, 3-Amino-5-[4-(1-amino-1-methylethyl)phenyl]-1H-indazole trihydrochloride] | 220 to 222 °C (dec.)
35 | CC(=O)n1ncc2cc(-c3ccc(C(C)(C)N)cc3)ccc21 (as salt: hydrochloride) [Compound 5-2, 1-Acetyl-5-[4-(1-amino-1-methylethyl)phenyl]-1H-indazole dihydrochloride] | 247 to 250 °C
